Laboratory results taken from patent publication US5593970A, “Heterocyclic anthracycline analogs” (priority 1994, dated 1997).
Counter-ions that a name gives are not always drawn. Like-named read-outs stand apart in the source and are kept apart here.

Columns and labels:
HT29 [1] = assay: Soft agar colony formation disk diffusion assay; type: cell-based, human
Description: A more elaborate version of this fundamental assay, the soft agar colony formation disk diffusion assay was used. […] The effect of the test drug against tumoral cells could be measured by its inhibitory capacity against colony formation after the delivery of the compound, in different concentrations on an filter disk(4). A modified technique of this assay was used in order to investigate the antiproliferative activity of candidate compounds. Tumoral cells from solid tumors and ascitic lines were plated separately in a two layer agar matrix. Cell lines to be tested were suspended in an upper layer of 0.4% Noble agar (Difco#00142-01) in RPMI-1066 (Gibco#3201875) at a yield varying between 10^4 to 2×10^5 cells per 60 mm Petri dish. Plating efficiency was determined for each line in order to achieve an optimal number of colonies per dish. […] The bottom layer consisted of 0.8% Noble agar, 0.8% Tryptic Soy Broth (difco#0037001)in CMRL-1066/Fischer's. The bottom layers were used within 2 and 9 days of preparation. Plated dishes (bottom layer of agar, upper layer of cells and administered drug were incubated in humidified atmosphere at 37° C., 5% CO2 for 10-20 days depending upon the time necessary to observe adequate colonies (defined as a cell aggregate of more than 50 cells) both control and drug inhibited. Drugs were administered on a paper filter disk (Whatman No. 1) of 6.5 mm diameter placed on the upper layer at 1/3 distance from the edge of the dish. The anti-clonogenic activity of the compounds was measured as the zone of inhibition from the disk edge to the most proximal colonies. This zone of inhibition was checked on an inverted microscope (40×) and was measured with a micrometer mounted in the eyepiece. The ocular micrometer was calibrated with a stage micrometer set for a particular combination of ocular and objective lenses. […] We made a modification of the initial technique by not plating a solid tumor and a leukemia simultaneously in the same Petri dish. […] HUMAN TUMORS. […] LS180 (13) and BE1(14) were obtained from the Oncology Dept. of the Montreal General Hospital. […] Cell lines were routinely passaged twice a week by trypsinization and maintained in 25, or 75-sq. cm Falcon Plastic flasks at 37° C., 5% CO2 in humidified atmosphere. Both compounds were dissolved in DMSO (1 mg/100 ul) and brought to final volume (250 ul) with Millipore deionized sterile water. Further dilutions were made with […] volume of 25 ul of freshly prepared solution was placed on the filter disk and allowed to dry.

MATB.WT = assay: Soft agar colony formation disk diffusion assay; type: cell-based, rat
Outline: (§1)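 Tumour cells from in vivo-maintained murine tumours or ascites were plated in the upper layer (0.4% Noble agar) of a two-layer soft-agar matrix, with solid and leukemic lines kept separate. Compound dissolved in DMSO/water was dried onto a 6.5 mm filter disk. After 10–20 days at 37 °C, the inhibition zone from disk edge to nearest colony (>50 cells) was measured by micrometer.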

MATB/ADR = assay: Soft agar colony formation disk diffusion assay; type: cell-based, rat
Outline: as §1

B16 = assay: Soft agar colony formation disk diffusion assay; type: cell-based, murine
Description: (§2) A more elaborate version of this fundamental assay, the soft agar colony formation disk diffusion assay was used. This assay defines the relative activity of one particular drug versus a tumoral cell line type. The effect of the test drug against tumoral cells could be measured by its inhibitory capacity against colony formation after the delivery of the compound, in different concentrations on an filter disk(4). A modified technique of this assay was used in order to investigate the antiproliferative activity of candidate compounds. Tumoral cells from solid tumors and ascitic lines were plated separately in a two layer agar matrix. Cell lines to be tested were suspended in an upper layer of 0.4% Noble agar (Difco#00142-01) in RPMI-1066 (Gibco#3201875) at a yield varying between 10^4 to 2×10^5 cells per 60 mm Petri dish. Plating efficiency was determined for each line in order to achieve an optimal number of colonies per dish. Plates were examined before drug administration to confirm a uniform dispersion of single cells. The bottom layer consisted of 0.8% Noble agar, 0.8% Tryptic Soy Broth (difco#0037001)in CMRL-1066/Fischer's. The bottom layers were used within 2 and 9 days of preparation. Plated dishes (bottom layer of agar, upper layer of cells and administered drug were incubated in humidified atmosphere at 37° C., 5% CO2 for 10-20 days depending upon the time necessary to observe adequate colonies (defined as a cell aggregate of more than 50 cells) both control and drug inhibited. Drugs were administered on a paper filter disk (Whatman No. 1) of 6.5 mm diameter placed on the upper layer at 1/3 distance from the edge of the dish. The anti-clonogenic activity of the compounds was measured as the zone of inhibition from the disk edge to the most proximal colonies. This zone of inhibition was checked on an inverted microscope (40×) and was measured with a micrometer mounted in the eyepiece. The ocular micrometer was calibrated with a stage micrometer set for a particular combination of ocular and objective lenses. […] We made a modification of the initial technique by not plating a solid tumor and a leukemia simultaneously in the same Petri dish. Anti-clonogenic tests performed on leukemia cell line have helped in the discovery of the majority of current clinically used cytostatic drugs. Our tests on solid tumor lines (animal or human) may help define active compounds with solid tumor specificity. […] Murine tumors were maintained IN VIVO in order to diminish the selection of subpopulations of cells normally present in the heterogenous IN VIVO tumor. The actual drug sensitivity assay was done IN VITRO. For these experiments cells from freshly excised tumors or from ascitic fluids were maintained in RPMI-1066. Both compounds were dissolved in DMSO (1 mg/100 ul) and brought to final volume (250 ul) with Millipore deionized sterile water. Further dilutions were made with […] volume of 25 ul of freshly prepared solution was placed on the filter disk and allowed to dry.

LL = assay: Soft agar colony formation disk diffusion assay; type: cell-based, murine
Description: as §2

M5076 = assay: Soft agar colony formation disk diffusion assay; type: cell-based, murine
Description: as §2

P388/ADR = assay: Soft agar colony formation disk diffusion assay; type: cell-based, murine
Description: as §2

P388 = assay: Soft agar colony formation disk diffusion assay; type: cell-based, murine
Description: as §2

SKVLB = assay: Microculture tetrazolium assay; type: cell-based; settings: for VLB/OV3: IC50 ratio SKVLB/SKOV3; for IC50: SKVLB, read-out: IC50
LOX = assay: Microculture tetrazolium assay; type: cell-based; settings: read-out: IC50
HT29 [2] = assay: Microculture tetrazolium assay; type: cell-based; settings: read-out: IC50

| Compound | zone of inhibition (HT29 [1]; 100 μg/DISK) | zone of inhibition (MATB.WT; 100 μg/DISK) | zone of inhibition (MATB/ADR; 100 μg/DISK) | zone of inhibition (B16; 100 μg/DISK) | zone of inhibition (LL; 100 μg/DISK) | zone of inhibition (M5076; 100 μg/DISK) | zone of inhibition (P388/ADR; 100 μg/DISK) | zone of inhibition (P388; 100 μg/DISK) | zone of inhibition (HT29 [1]; 10 μg/DISK) | zone of inhibition (MATB.WT; 10 μg/DISK) | zone of inhibition (MATB/ADR; 10 μg/DISK) | zone of inhibition (B16; 10 μg/DISK) | zone of inhibition (M5076; 10 μg/DISK) | zone of inhibition (P388/ADR; 10 μg/DISK) | zone of inhibition (P388; 10 μg/DISK) | VLB/OV3 (SKVLB) | IC50 (SKVLB) | IC50 (LOX) | IC50 (HT29 [2]; HT29) | zone of inhibition (LL; 10 μg/DISK) | also measured |
| --- | --- | --- | --- | --- | --- | --- | --- | --- | --- | --- | --- | --- | --- | --- | --- | --- | --- | --- | --- | --- | --- |
| CCOC(=O)C1CC2=C(CO1)C(=O)c1cc3ccccc3c(O)c1C2=O (stereo not shown) [BCH-653, Ethyl(6 and 11 hydroxy-5,12-dioxo-3,4,5,12-tetrahydro-anthraceno[2,3-c]pyran-3-yl)]formate] | 42.7 ± 8.6 Zone Units | 0 Zone Units | 0 Zone Units | 0 Zone Units | 18.3 ± 0.0 Zone Units | 85.4 ± 25.8 Zone Units | 66.8 ± 8.2 Zone Units | 64.0 ± 4.2 Zone Units |  |  |  |  |  |  |  |  |  |  |  |  |  |
| 3-carbomethoxy-6-hydroxy-1,2,3,4-tetrahydro-(2-sulfur)naphthacene-5,12-dione and 3-carbomethoxy-11-hydroxy-1,2,3,4-tetrahydro(2-sulfur)naphthacene-5,12-dione [BCH-693] | 39.6 ± 4.3 Zone Units | 42.7 ± 8.8 Zone Units | 67.1 ± 8.6 Zone Units | 27.4 ± 4.3 Zone Units | 45.7 ± 21.5 Zone Units | 51.8 ± 12.9 Zone Units | 76.5 ± 21.9 Zone Units | 400.0 Zone Units | 0 Zone Units | 0 Zone Units | 0 Zone Units | 0 Zone Units | 27.4 ± 4.3 Zone Units | 20.0 ± 0.0 Zone Units | 120.0 ± 0.0 Zone Units | 1.06 | 44.2 µM | 48 µM | 18.9 µM |  |  |
| COC(=O)[C@@H]1CC2=C(C(=O)c3c(c(OC)c4ccccc4c3O)C2=O)[C@@H](O[C@H]2C[C@H](NC(=O)C(F)(F)F)[C@H](O)[C@H](C)O2)O1 (mixture of isomers) [BCH-674, (1'S,1S,3R) and 1'S,1R,3S) Methyl(11-hydroxy-6-methoxy-1-[2',3',6'-trideoxy-3-trifluoroacetamido-4'-hydroxy-L-lyxohexopyranose]-5,12-dioxo-3,4,5,12-tetrahydroanthra-ceno[2,3-c]pyran-3-yl) formate] | 36.6 ± 17.2 Zone Units | 198.2 ± 21.5 Zone Units | 213.5 ± 25.8 Zone Units | 122.0 ± 86.2 Zone Units | 115.9 ± 8.0 Zone Units |  | 150.0 ± 8.0 Zone Units | 137.2 ± 38.8 Zone Units | 122.2 ± 80.6 Zone Units | 30.5 ± 13.0 Zone Units | 24.4 ± 8.6 Zone Units | 91.5 ± 60.3 Zone Units |  | 0 Zone Units | 30.5 ± 25.8 Zone Units | 0.91 | 6.81 µM | 2.06 µM |  | 54.9 ± 8.6 Zone Units | IC50 (HT29 [2]; Homo sapiens, HT-29, HT29): 6.63 µM |
| Methyl(11-hydroxy-5,12-dioxo-3,4,5,12-tetrahydroanthraceno[2,3-c]pyran-3-yl)ketone and Methyl(5-hydroxy-5,12-dioxo-3,4,5,12-tetrahydroanthraceno[2,3-c]pyran-3-yl)ketone [BCH-687] | 150.4 ± 25.3 Zone Units | 97.6 ± 20.0 Zone Units | 101.6 ± 35.2 Zone Units | 70.1 ± 13.0 Zone Units | 182.6 ± 35.2 Zone Units | 410.8 ± 46.5 Zone Units | 153.6 ± 30.6 Zone Units | 183.0 ± 81.0 Zone Units | 61.0 ± 12.2 Zone Units | 42.7 ± 6.1 Zone Units | 69.1 ± 7.0 Zone Units | 34.6 ± 3.6 Zone Units | 0 Zone Units | 0 Zone Units | 81.3 ± 30.0 Zone Units |  |  |  |  | 62.8 ± 30.7 Zone Units |  |
| 3-(2-acetoxy-1-propeneketal)aceto-6-acetoxy-1-hydroxy-1,2,3,4-tetrahydro-(2-oxygen)naphtacene-5,12-dione and 3-(2-acetoxy-1-propeneketal)-aceto-11-acetoxy-1-hydroxy-1,2,3,4-tetrahydro-(2-oxygen)naphtacene-5,12-dione [BCH-710] | 69.0 ± 30.0 Zone Units | 366.0 ± 0.0 Zone Units | 350.0 ± 64.3 Zone Units | 21.0 ± 2.1 Zone Units |  | 533.0 ± 20.0 Zone Units | 110.0 ± 0.0 Zone Units | 326.5 ± 43.1 Zone Units | 30.0 ± 8.4 Zone Units | 44.0 Zone Units | 288.0 ± 21.9 Zone Units | 21.0 ± 2.1 Zone Units | 209.5 ± 21.9 Zone Units | 0 Zone Units | 13.0 ± 0.0 Zone Units | 1.30 | 5.19 µM | 3.51 µM | 1.79 µM |  | cross resistance with adriamycin, MATB/ADR vs MATB.WT (MATB/ADR): greater cytotoxicity in the resistant breast tumor cell line |
| CCOC(=O)C1Cc2c(c(OC)c3c(c2OC)C(=O)c2ccccc2C3=O)CS1 (stereo not shown) [BCH-717] | 0 Zone Units | 0 Zone Units | 0 Zone Units | 106.0 ± 64.3 Zone Units |  | 39.5 ± 30.4 Zone Units | 0 Zone Units | 122.0 ± 0.0 Zone Units | 0 Zone Units | 0 Zone Units | 0 Zone Units | 0 Zone Units | 18.3 Zone Units | 0 Zone Units | 0 Zone Units |  | > 100 µM | > 100 µM |  |  | IC50 (HT29 [2]; Homo sapiens, HT-29, HT29): > 100 µM |
